Data as given in patent publication USRE33699E, “Growth hormone-releasing factor analogs” (International Minerals & Chemical Corp., priority 1990, dated 1991).
Square brackets hold non-standard residues; d marks the D form. Peptide text beside a SMILES is read from it. Nle = CCCC[C@H](N)C(=O)O

Tested on: rat pituitary cells
Assay: Bioassay of hGRF analogs: stimulation of growth hormone release in rat pituitary cells in tissue culture
Type: cell-based
From the text: The assay for biological activity, which is based on the ability to stimulate release of growth hormone in rat pituitary cells in tissue culture, has been described in detail (Culler, M. D.; Kenjo, T.: Obara, N.; Arimuar, A., Stimulation of cAMP. Accumulation by Human Pancreatic GH-Releasing Factor(1-44). Am. J. Physiol. 1984, 247 (Endocrinol.Metab. 10). E609-E615.
ALLFIT, the 4-parameter logistic curve fitting program available from the Biomedical Computer Technology Information Center, Vanderbilt Medical Center, Nashville Tenn., was used to determine ED50 and maximal stimulated values from the data. In several instances, the amount of GH released reached a maximum value and decreased with further increasing doses of the hGRF analogs. To simplify the data analysis, these values were not used in the calculations. The calculated maximal responses, the doses of the analog required to release the amount of GH released at the ED50 of the standard (hGRF) and the potencies of the analogs relative to hGRF, are given in Table 2. Generally all novel analogs were fully active and were able to stimulate the release of growth hormone with maximal values of GH release being within 80% of the value for natural hGRF.

## CCCC[C@H](NC(=O)[C@@H](NC(=O)[C@H](CC(N)=O)NC(=O)[C@H](CCC(N)=O)NC(=O)[C@H](CC(C)C)NC(=O)[C@H](CC(C)C)NC(=O)[C@H](CCCCN)NC(=O)[C@H](CCCNC(=N)N)NC(=O)[C@H](C)NC(=O)[C@H](CO)NC(=O)[C@H](CC(C)C)NC(=O)[C@H](CCC(N)=O)NC(=O)CNC(=O)[C@H](CC(C)C)NC(=O)[C@@H](NC(=O)[C@H](CCCCN)NC(=O)[C@H](CCCNC(=N)N)NC(=O)[C@H](Cc1ccc(O)cc1)NC(=O)[C@H](CO)NC(=O)[C@H](CC(=O)O)NC(=O)[C@@H](NC(=O)[C@H](Cc1ccccc1)NC(=O)[C@@H](NC(=O)[C@H](C)NC(=O)[C@H](CC(=O)O)NC(=O)[C@H](C)NC(=O)[C@@H](N)Cc1ccc(O)cc1)[C@@H](C)CC)[C@@H](C)O)C(C)C)[C@@H](C)CC)C(=O)N[C@@H](CO)C(=O)N[C@@H](CCCNC(=N)N)C(=O)N[C@@H](CCC(N)=O)C(=O)N[C@@H](CCC(N)=O)C(N)=O [[Asp^8, Asn^25, Nle^27]-hGRF(1-31)--NH2, [Asp^8,Asn^25,Nle^27]-hGRF(1-31)--NH2] (H-YADAIFTDSYRKVLGQLSARKLLQNI[Nle]SRQQ-NH2)
2.01 μg/ml = GH released at the ED50 of hGRF, from ALLFIT curves
  Dose Needed to Release 2.01 μg/ml of GH: 0.42 nM
(ED50 of hGRF)/(Dose required to give same response as ED50 of hGRF)
  Potency: 76%
From ALLFIT curves
  Relative Maximum Activity (% of hGRF): 87 % of hGRF
